T1: heat-resistant sarcosine oxidase N from Bacillus sp. NS-129 (present enzyme) (Bacillus sp., UniProt P23342)
T1 construct: the present enzyme is ordinarily present within the cells; made in house; host or cells: Bacillus sp; NS-129 (FERM BP-671), the native producer; purified from the cells
T1 sequence (P23342 1-387): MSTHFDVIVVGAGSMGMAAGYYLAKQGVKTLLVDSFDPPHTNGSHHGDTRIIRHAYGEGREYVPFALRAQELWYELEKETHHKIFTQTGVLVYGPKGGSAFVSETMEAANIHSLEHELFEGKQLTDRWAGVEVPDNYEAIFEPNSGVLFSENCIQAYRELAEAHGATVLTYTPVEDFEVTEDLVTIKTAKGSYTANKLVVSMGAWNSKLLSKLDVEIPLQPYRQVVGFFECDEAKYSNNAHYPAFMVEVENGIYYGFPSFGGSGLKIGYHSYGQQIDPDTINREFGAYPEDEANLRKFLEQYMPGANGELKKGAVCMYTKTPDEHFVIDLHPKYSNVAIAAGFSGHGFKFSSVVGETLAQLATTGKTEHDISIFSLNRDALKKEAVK

B1: heat-resistant sarcosine oxidase N from Bacillus sp. NS-129 (present enzyme) (Bacillus sp. NS-129) (protein)
chain: T1 sequence (P23342 1-387)
notes: the present enzyme is ordinarily present within the cells; made in house; host or cells: Bacillus sp; NS-129 (FERM BP-671), the native producer; purified from the cells

Columns and labels:
[1] = target: T1, heat-resistant sarcosine oxidase N from Bacillus sp. NS-129 (present enzyme); assay: Inhibition of heat-resistant sarcosine oxidase N; assay type: biochemical; conditions: inhibitor at 2 mM
[2] = target: Known enzyme*2: the sarcosine oxidase described in J. Biochem. 89, 599 (1981) JAPAN (Corynebacterium sp., UniProt Q50LF2); conditions: read-out: Km value for sarcosine; 37° C., pH 7.7; Table 1, known enzyme*2; cited from earlier work
[3] = substrate: CNCC(=O)O; assay: Km determination of heat-resistant sarcosine oxidase N (present enzyme); assay type: biochemical, Bacillus sp. NS-129; conditions: other: 37° C., pH 7.7 (phosphate buffer solution)
Experimental: First method: Sarcosine is oxidatively decomposed using the present enzyme and the resulting formaldehyde is determined by colorimetry.
To 0.3 ml of a 0.2 M sarcosine solution were added 0.1 ml of a 0.3 M phosphate buffer solution (pH 7.7) and 0.1 ml of a solution containing an appropriate concentration of the present enzyme. They were subjected to reaction at 37° C. for 10 minutes. The reaction was stopped by addition of 0.5 ml of a 1.0 N acetic acid solution. Thereto was added 3 ml of a color reagent (pH 6.5) containing 0.02% (V/V) of acetylacetone and 10% (W/V) of diammonium hydrogen phosphate. The resulting mixture was subjected to color development at 37° C. for 40 minutes. The absorbance of the resulting color at 410 nm was measured using a photoelectric photometer.
Second method: Sarcosine is oxidatively decomposed using the present enzyme and the resulting hydrogen peroxide (H2 O2) is determined by colorimetry.
0.1 ml of a solution containing an appropriate concentration of the present enzyme was added to a mixture of 0.5 ml of a 0.2 M sarcosine solution, 0.1 ml of a 0.3 M phosphate buffer solution (pH 7.7), 0.1 ml of a 0.2% 2,4-dichlorophenol sulfonate solution, 0.1 ml of a 70 mg/100 ml 4-aminoantipyrine solution and 0.1 ml of a 70 units/ml peroxidase solution. […] The absorbance of the resulting color at 510 nm was measured using a photoelectric photometer.

| Molecule | Inhibition of the enzyme [1] | other results |
| --- | --- | --- |
| CCN1C(=O)C=CC1=O [N-ethylmaleimide] | strongly inhibited | – |
| CNCC(=O)O [sarcosine, N-methylglycine] | – | Km [2]: 3.4 mM |
| O=C(O)CI [monoiodoacetic acid] | strongly inhibited | – |
| B1 | – | Km [3]: 4.7 mM |

From patent US4740465A, “Heat-resistant sarcosine oxidase N and process for producing the same” (Noda Institute for Scientific Research, priority 1985, dated 1988)
